Experimental data: US20090298878A1, “OXIME COMPOUNDS AND THE USE THEREOF” (priority 2006, published 2009)

Target: T1, N-type calcium channel (NTCC) (Homo sapiens, UniProt Q00975)
T1 construct: host or cells: IMR32 cells differentiated with dibutyryl cAMP and bromodeoxyuridine
Assay: FLIPR calcium mobilization assay for N-type calcium channel (differentiated IMR32 cells)
Format: cell-based
Conditions: about 1.0 μM or less; calcium mobilization and/or electrophysiological assay
Experimental: Cell maintenance and differentiation. Unless noted otherwise, cell culture reagents were purchased from Mediatech of Hemdon, Md. IMR32 cells (American Type Culture Collection, ATCC, Manassas, Va.) were routinely cultured in growth medium consisting of minimum essential medium containing 10% fetal bovine serum (FBS, Hyclone, Logan, Utah), 100 U/mL penicillin, 100 μg/mL streptomycin, 2 mM L-glutamine, 1 mM sodium pyruvate, and 1× MEM non-essential amino acids. 80-90% confluent flasks of cells were differentiated using the following differentiation medium: Growth medium plus 1 mM dibutyryl cyclic AMP (Sigma, St. Louis, Mo.), and 2.5 μM bromodeoxyuridine (Sigma). Cells were differentiated for 8 days by replacing differentiation medium every 2-3 days.
FLIPR Calcium Mobilization Assay for N-type Calcium Channel. One day prior to performing this assay, differentiated IMR32 cells were treated with 1× CellStripper, and seeded on poly-D-lysine-coated 96-well clear-bottom black plates (Becton Dickinson, Franklin Lakes, N.J.) at 200,000 cells/well. On the day of the assay, the cell plates were washed with IMR32 buffer (127 mM NaCl, 1 mM KCl, 2 mM MgCl2, 700 μM NaH2PO4, 5 mM CaCl2, 5 mM NaHCO3, 8 mM HEPES, 10 mM glucose, pH 7.4), then pre-stimulated with KCl and loaded as follows: 0.05 mL of IMR32 buffer, 0.05 mL of each compound tested diluted in IMR32 buffer containing 20 μM nitrendipine (Sigma), and 0.1 mL KCl dissolved in IMR32 buffer, plus Fluo-4 were added (3 μM final concentration, Molecular Probes, Eugene, Oreg.). Final test compound concentrations ranged from about 846 pM to about 17 μM, final nitrendipine concentration was 5 μM, and final KCl concentration was 90 mM. After 1 hour, the cells were washed twice with 0.05 mL of each compound tested in nitrendipine-containing IMR32 buffer (no KCl or Fluo-4), and then replaced with 0.1 mL of each compound tested in nitrendipine-containing IMR32 buffer. Plates were then transferred to a Fluorimetric imaging Plate Reader (FLIPR^96, Molecular Devices, Inc., Sunnyvale, Calif.) for assay. The FLIPR measured basal Fluo-4 fluorescence for 315 seconds (i.e., 5 minutes and 15 seconds), then added 0.1 mL KCl agonist dissolved in IMR32 buffer and measured fluorescence for another 45 seconds. Final test compound concentrations on the cells after FLIPR read ranged from about 846 pM to about 17 μM, final nitrendipine concentration was 5 μM, and final KCl concentration was 90 mM. Data were collected over the entire time course and analyzed using Excel, Graph Pad Prism (version 3.02, Graph Pad, San Diego, Calif.), or an in-house non-linear regression analysis software.

T1 sequence (Q00975 whole entry): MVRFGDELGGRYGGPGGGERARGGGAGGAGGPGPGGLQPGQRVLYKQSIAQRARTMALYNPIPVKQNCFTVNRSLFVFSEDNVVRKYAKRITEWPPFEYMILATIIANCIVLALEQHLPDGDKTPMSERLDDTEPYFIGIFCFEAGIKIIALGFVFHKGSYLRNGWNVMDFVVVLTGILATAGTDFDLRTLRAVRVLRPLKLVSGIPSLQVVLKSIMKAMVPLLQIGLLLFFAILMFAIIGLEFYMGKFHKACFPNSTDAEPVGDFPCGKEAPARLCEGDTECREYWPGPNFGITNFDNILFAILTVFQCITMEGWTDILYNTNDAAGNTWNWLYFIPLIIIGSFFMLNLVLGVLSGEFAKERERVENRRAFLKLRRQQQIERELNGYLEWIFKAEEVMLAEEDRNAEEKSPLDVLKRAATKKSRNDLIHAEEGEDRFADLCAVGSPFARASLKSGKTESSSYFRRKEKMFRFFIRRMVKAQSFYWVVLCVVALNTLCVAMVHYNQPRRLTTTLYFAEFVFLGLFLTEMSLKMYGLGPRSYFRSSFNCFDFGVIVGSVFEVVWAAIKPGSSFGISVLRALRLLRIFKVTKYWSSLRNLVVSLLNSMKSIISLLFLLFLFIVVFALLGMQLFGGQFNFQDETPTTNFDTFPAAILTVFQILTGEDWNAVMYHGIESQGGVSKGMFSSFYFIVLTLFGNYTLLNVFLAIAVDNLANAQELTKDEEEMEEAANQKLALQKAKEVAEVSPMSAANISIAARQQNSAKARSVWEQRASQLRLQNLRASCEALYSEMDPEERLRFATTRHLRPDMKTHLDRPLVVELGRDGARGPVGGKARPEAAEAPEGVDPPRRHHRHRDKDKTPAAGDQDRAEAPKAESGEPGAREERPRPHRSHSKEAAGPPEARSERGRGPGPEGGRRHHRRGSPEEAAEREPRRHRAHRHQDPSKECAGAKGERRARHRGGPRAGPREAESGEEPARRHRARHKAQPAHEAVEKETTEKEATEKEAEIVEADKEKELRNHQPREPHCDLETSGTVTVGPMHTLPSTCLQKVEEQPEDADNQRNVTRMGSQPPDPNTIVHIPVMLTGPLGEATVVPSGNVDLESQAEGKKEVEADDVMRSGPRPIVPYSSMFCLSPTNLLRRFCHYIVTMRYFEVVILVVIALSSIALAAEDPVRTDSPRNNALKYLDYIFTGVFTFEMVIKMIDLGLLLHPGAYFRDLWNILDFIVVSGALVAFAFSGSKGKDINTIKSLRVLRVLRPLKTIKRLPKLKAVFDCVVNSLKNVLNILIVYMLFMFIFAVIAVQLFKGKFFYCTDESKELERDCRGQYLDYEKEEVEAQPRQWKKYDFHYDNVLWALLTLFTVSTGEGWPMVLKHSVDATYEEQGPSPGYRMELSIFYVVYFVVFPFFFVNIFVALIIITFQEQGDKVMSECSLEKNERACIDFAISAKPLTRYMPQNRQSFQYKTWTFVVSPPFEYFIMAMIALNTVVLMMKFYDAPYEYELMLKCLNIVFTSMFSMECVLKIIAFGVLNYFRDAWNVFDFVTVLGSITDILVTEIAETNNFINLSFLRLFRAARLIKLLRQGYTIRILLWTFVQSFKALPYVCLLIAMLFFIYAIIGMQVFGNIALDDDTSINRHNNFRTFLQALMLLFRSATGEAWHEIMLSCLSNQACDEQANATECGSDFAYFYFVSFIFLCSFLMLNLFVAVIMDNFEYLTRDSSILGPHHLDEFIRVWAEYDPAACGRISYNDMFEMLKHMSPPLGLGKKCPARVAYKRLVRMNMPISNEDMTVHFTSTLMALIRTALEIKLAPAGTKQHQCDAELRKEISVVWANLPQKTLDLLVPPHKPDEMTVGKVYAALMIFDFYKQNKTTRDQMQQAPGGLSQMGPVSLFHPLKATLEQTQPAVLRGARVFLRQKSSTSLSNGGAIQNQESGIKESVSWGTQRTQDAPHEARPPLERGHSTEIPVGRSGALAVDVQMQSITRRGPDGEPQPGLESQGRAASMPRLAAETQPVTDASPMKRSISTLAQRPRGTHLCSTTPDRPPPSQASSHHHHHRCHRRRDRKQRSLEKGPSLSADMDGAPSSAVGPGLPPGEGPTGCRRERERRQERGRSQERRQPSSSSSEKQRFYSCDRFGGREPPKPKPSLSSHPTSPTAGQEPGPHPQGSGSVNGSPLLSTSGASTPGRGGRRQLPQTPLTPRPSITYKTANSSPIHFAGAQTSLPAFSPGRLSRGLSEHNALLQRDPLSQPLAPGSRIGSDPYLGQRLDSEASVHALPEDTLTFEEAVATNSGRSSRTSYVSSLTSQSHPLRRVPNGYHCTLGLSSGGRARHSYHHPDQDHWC

SMILES	IC50 [µM]
N#Cc1cccc(CON=C2CCN(S(=O)(=O)c3ccc(OC(F)(F)F)cc3)CC2)n1 [Example 173, 6-((1-(4-(Trifluoromethoxy)phenylsulfonyl)piperidin-4-ylideneaminooxy)methyl)picolinonitrile]	≤ 1
N#Cc1cc(CON=C2CCN(S(=O)(=O)c3ccc(OC(F)(F)F)cc3)CC2)ccn1 [Example 177, 4-((1-(4-(Trifluoromethoxy)phenylsulfonyl)piperidin-4-ylideneaminooxy)methyl)picolinonitrile]	≤ 1
N#Cc1ccnc(CON=C2CCN(S(=O)(=O)c3ccc(OC(F)(F)F)cc3)CC2)c1 [Example 178, 2-((1-(4-(trifluoromethoxy)phenylsulfonyl)piperidin-4-ylideneaminooxy)methyl)isonicotinonitrile]	≤ 1
N#Cc1cc(CON=C2CCN(C(=O)CCC(c3ccc(F)cc3)c3ccc(F)cc3)CC2)ccc1F [Example 181, 5-((1-(4,4-Bis(4-fluorophenyl)butanoyl)piperidin-4-ylideneaminooxy)methyl)-2-fluorobenzonitrile]	≤ 1
N#Cc1cccc(C(ON=C2CCN(S(=O)(=O)c3ccc(OC(F)(F)F)cc3)CC2)C2CC2)c1 (stereo not shown) [Example 186, 3-(Cyclopropyl(1-(4-(trifluoromethoxy)phenylsulfonyl)piperidin-4-ylideneaminooxy)methyl)benzonitrile]	≤ 1
COc1cc(CON=C2CCN(S(=O)(=O)c3ccc(OC(F)(F)F)cc3)CC2)nc2ccccc12 [Example 189, 1-(4-(Trifluoromethoxy)phenylsulfonyl)piperidin-4-one O-(4-methoxyquinolin-2-yl)methyl oxime]	≤ 1
N#Cc1cccc(C(CO)ON=C2CCN(S(=O)(=O)c3ccc(OC(F)(F)F)cc3)CC2)c1 (stereo not shown) [Example 191, 3-(2-Hydroxy-1-(1-(4-(trifluoromethoxy)phenylsulfonyl)piperidin-4-ylideneaminooxy)ethyl)benzonitrile]	≤ 1
N#Cc1cccc(CON=C2CCN(S(=O)(=O)c3ccc(F)cc3)CC2)c1 [Example 196]	≤ 1
N#Cc1cccc(CON=C2CCN(S(=O)(=O)c3ccc(OC(F)F)cc3)CC2)c1 [Example 197, 3-((1-(4-(Difluoromethoxy)phenylsulfonyl)piperidin-4-ylideneaminooxy)methyl)benzonitrile]	≤ 1
N#Cc1ccc(S(=O)(=O)N2CCC(=NOCc3cccc(C#N)c3)CC2)cc1 [Example 199]	≤ 1
N#Cc1cccc(CON=C2CCN(S(=O)(=O)c3ccc(F)c(F)c3)CC2)c1 [Example 210, 3-((1-(3,4-Difluorophenylsulfonyl)piperidin-4-ylideneaminooxy)methyl)benzonitrile]	≤ 1
O=c1ccc(C(ON=C2CCN(S(=O)(=O)c3ccc(OC(F)(F)F)cc3)CC2)c2ccc(F)cc2)c[nH]1 (stereo not shown) [Example 214, 5-((4-Fluorophenyl)(1-(4-(trifluoromethoxy)phenylsulfonyl)piperidin-4-ylideneaminooxy)methyl)pyridin-2(1H)-one]	≤ 1
O=S(=O)(c1ccc(Cl)cc1Cl)N1CCC(=NOC(c2ccc(F)cc2)c2ccc(F)cc2)CC1 [Example 228, 1-(2,4-Dichlorophenylsulfonyl)piperidin-4-one O-bis(4-fluorophenyl)methyl oxime]	≤ 1
N#Cc1ccccc1S(=O)(=O)N1CCC(=NOC(c2ccc(F)cc2)c2ccc(F)cc2)CC1 [Example 229, 2-(4-(Bis(4-fluorophenyl)methoxyimino)piperidin-1-ylsulfonyl)benzonitrile]	≤ 1
CCCCc1ccc(S(=O)(=O)N2CCC(=NOC(c3ccc(F)cc3)c3ccc(F)cc3)CC2)cc1 [Example 231, 1-(4-Butylphenylsulfonyl)piperidin-4-one O-bis(4-fluorophenyl)methyl oxime]	≤ 1

Now from value to compound:

IC50 [µM]	SMILES
≤ 1	N#Cc1cc(CON=C2CCN(S(=O)(=O)c3ccc(OC(F)(F)F)cc3)CC2)ccc1F [Example 108, 2-Fluoro-5-[1-(4-trifluoromethoxybenzenesulfonyl)piperidin-4-ylideneaminooxymethyl]benzonitrile]
≤ 1	COc1cccc(CON=C2CCN(S(=O)(=O)c3ccc(OC(F)(F)F)cc3)CC2)n1 [Example 110, 1-(4-Trifluoromethoxybenzenesulfonyl)piperidin-4-one O-(6-methoxypyridin-2-ylmethyl)oxime]
≤ 1	COc1ncccc1CON=C1CCN(S(=O)(=O)c2ccc(OC(F)(F)F)cc2)CC1 [Example 111, 1-(4-Trifluoromethoxybenzenesulfonyl)piperidin-4-one O-(2-methoxypyridin-3-ylmethyl)oxime]
≤ 1	O=S(=O)(c1ccc(OC(F)(F)F)cc1)N1CCC(=NOCc2cc(Cl)ccn2)CC1 [Example 118, 1-(4-Trifluoromethoxybenzenesulfonyl)piperidin-4-one O-(4-chloropyridin-2-ylmethyl)oxime]
≤ 1	O=S(=O)(c1ccc(OC(F)(F)F)cc1)N1CCC(=NOC(c2ccc(F)cc2)c2ccc(F)cc2)CC1 [Example 119, 1-(4-Trifluoromethoxybenzenesulfonyl)piperidin-4-one O-[bis(4-fluorophenyl)methyl]oxime]
≤ 1	N#Cc1ccccc1CON=C1CCN(S(=O)(=O)c2ccc(OC(F)(F)F)cc2)CC1 [Example 120, 2-[1-(4-Trifluoromethoxybenzenesulfonyl)piperidin-4-ylideneaminooxymethyl]benzonitrile]
≤ 1	N#Cc1cccc(CON=C2CCN(S(=O)(=O)c3ccc(OC(F)(F)F)cc3)CC2)c1 [Example 121, 3-[1-(4-Trifluoromethoxybenzenesulfonyl)piperidin-4-ylideneaminooxymethyl]benzonitrile]
≤ 1	O=S(=O)(c1ccc(OC(F)(F)F)cc1)N1CCC(=NOCc2ccc(Cl)cn2)CC1 [Example 127, 1-(4-Trifluoromethoxybenzenesulfonyl)piperidin-4-one O-(5-chloropyridin-2-ylmethyl)oxime]
≤ 1	CN(C)c1cccc(CON=C2CCN(S(=O)(=O)c3ccc(OC(F)(F)F)cc3)CC2)c1 [Example 128, 1-(4-Trifluoromethoxybenzenesulfonyl)piperidin-4-one O-(3-dimethylaminobenzyl)oxime]
≤ 1	O=[N+]([O-])c1ccc(CON=C2CCN(S(=O)(=O)c3ccc(OC(F)(F)F)cc3)CC2)cc1 [Example 134, 1-(4-Trifluoromethoxybenzenesulfonyl)piperidin-4-one O-(4-nitrobenzyl)oxime]
≤ 1	COc1ccc(CON=C2CCN(S(=O)(=O)c3ccc(OC(F)(F)F)cc3)CC2)cn1 [Example 144, 1-(4-Trifluoromethoxybenzenesulfonyl)piperidin-4-one O-(6-methoxypyridin-3-ylmethyl)oxime]
≤ 1	COc1cc(CON=C2CCN(S(=O)(=O)c3ccc(OC(F)(F)F)cc3)CC2)cc(Cl)n1 [Example 147, 1-(4-Trifluoromethoxybenzenesulfonyl)piperidin-4-one O-(2-chloro-6-methoxypyridin-4-ylmethyl)oxime]
≤ 1	Cn1c(Cl)cc(CON=C2CCN(S(=O)(=O)c3ccc(OC(F)(F)F)cc3)CC2)cc1=O [Example 152, 6-Chloro-1-methyl-4-[1-(4-trifluoromethoxybenzenesulfonyl)piperidin-4-ylideneaminooxymethyl]-1H-pyridin-2-one]
≤ 1	Cn1c(CON=C2CCN(S(=O)(=O)c3ccc(OC(F)(F)F)cc3)CC2)nc2ccccc21 [Example 160, 1-(4-(Trifluoromethoxy)phenylsulfonyl)piperidin-4-one O-(1-methyl-1H-benzo[d]imidazol-2-yl)methyl oxime]
≤ 1	O=S(=O)(c1ccc(OC(F)(F)F)cc1)N1CCC(=NOCc2nc3ccccc3[nH]2)CC1 [Example 162, 1-(4-(Trifluoromethoxy)phenylsulfonyl)piperidin-4-one O-(1H-benzo[d]imidazol-2-yl)methyl oxime]

Same assay, conditions: calcium mobilization in vitro assay, N-type calcium channel blockers

IC50 [µM]	SMILES
1.1	O=C(CC(=O)N1CCC(=NOC(c2ccc(F)cc2)c2ccc(F)cc2)CC1)Nc1ccc(F)cc1F [Example 227, 3-(4-(Bis(4-fluorophenyl)methoxyimino)piperidin-1-yl)-N-(2,4-difluorophenyl)-3-oxopropanamide]
